Results: patent US3932633A, “Novel o-triazenobenzamides, in treating aggressive behavior” (Uniroyal Inc., priority 1974, dated 1976)

Experiments:
[1] = system: isolation-induced fighting in mice; assay: Isolated fighting mouse (IFM) test / isolated mouse aggression; type: in vivo
Method: *IFM - Isolated fighting mouse test at a dose of 30 mg/kg
intraperitoneally; those compounds which protected at least 40% of the
(§1) Two models of aggression are used in the primary screening for neuroleptics, (1) isolation-induced fighting in mice (IFM), and (2) aggression induced in rats by destruction of the septal area (septal rat). Compounds are first submitted, however, to the neuropharmacological profile, a standard procedure (see, e.g., Samuel Irwin, Science, 136, 123 [1962]) employed in screening a compound to determine its usefulness as a central nervous system active compound. Those agents which cause depression over a wide dose range are then submitted to the first anti-aggression screen, the isolation-induced fighting mouse assay.
(§2) The compound of Example 6 was compared with chlorpromazine and chlordiazepoxide for its anti-aggressive activity. Three models of experimentally-induced aggression in rodents were studied (R. D. Sofia, Life Science, 8: 705, 1969).

[2] = system: spontaneous locomotor activity in rats; assay: Spontaneous locomotor activity; type: in vivo; details: Rattus norvegicus, ip, 0.5 h; I.P., rats, 30 minutes after administration, 30 minute activity count; read-out: SD50 (dose causing 50% reduction from control activity)
[3] = Neurotoxicity (rotating rod / rotorod), mice; details: mouse, in vivo, ip; I.P., mice; 95% confidence limits; read-out: NTD50
Method: (§3) In the neurotoxicity test, the value (NTD50) is defined as the dose necessary to cause 50% of mice or rats trained to walk a rotating wooden rod (5 rpm) to fall at the time of peak effect, and is a measure of drug effects on motor function or central nervous system toxicity. The results set forth in Table III were obtained when the compound of Example 6 was tested against chlorpromazine and chlordiazepoxide.

[4] = Neurotoxicity (rotating rod / rotorod), rats; details: rat, in vivo, ip
Method: as §3

[5] = system: electroshock-induced fighting in mice; assay: Electroshock-induced fighting in mice; type: in vivo, mouse; details: i.p. administration
Text: as §2

[6] = system: aggression induced in rats by destruction of the septal area; assay: Septal rat aggression; type: in vivo
Text: as §1, §2

[7] = system: maximal electroshock seizures in mice; assay: Maximal electroshock seizures; type: in vivo, mouse; details: I.P., mice; inactive at: Example 6 200 mg/kg, chlorpromazine 25 mg/kg
Method: Groups of ten mice each were injected i.p. with a vehicle and the compound of Example 6 and placed in individual Plexiglas squares. Thirty minutes after i.p. injection, each mouse was administered an electric shock transcorneally at 50mA intensity, 0.2 seconds duration (Swinyard, et al, J. Pharmacol. Exptl. Ther., 106: 319, 1952). The criterion for activity is protection against tonic extension of the hind limbs. The dose necessary to protect 50% of the mice (MES50) was determined.

[8] = system: pentylenetetrazol seizures in mice; assay: Pentylenetetrazol seizures; type: in vivo, mouse; details: I.P., mice; inactive at: Example 6 200 mg/kg, chlorpromazine 100 mg/kg
Method: In this test (modification of the method introduced by Everett and Richard, J. Pharmacol. Exptl. Ther., 81: 402, 1944), groups of ten mice each are pretreated i.p. with vehicle and various doses of the compound of Example 6 and placed in Plexiglas squares. Thirty minutes later, all mice are injected subcutaneously (s.c.) with pentylenetetrazol at 125 mg/kg and observed immediately thereafter for convulsions and death for a period of 1 hour.

[9] = system: d-amphetamine aggregation-induced lethality; assay: d-Amphetamine aggregation; type: in vivo; details: inactive at: Example 6 200 mg/kg, chlordiazepoxide 50 mg/kg
Method: Protection from d-amphetamine aggregation-induced lethality is usually afforded by alpha-adrenergic-blocking agents such as chlorpromazine, phenoxybenzamine, etc. Percent protection was determined and an ED50 value was calculated.

[10] = system: dihydroxyphenylalanine-induced fighting behavior in mice; assay: Dihydroxyphenylalanine (DOPA) fighting test; type: in vivo, mouse
Method: It is well known that when monoamine oxidase inhibitors are administered prior to the administration of d1-DOPA, which is a noradrenaline precursor, convulsions or excitation occur. In this study, the MAO inhibitor pargyline (80 mg/kg) was given 1, 2 and 4 hours prior to administering 200 mg/kg of d1-DOPA. […] Thus, in this procedure, none of the agents tested appears to be a MAO inhibitor.

[11] = system: tetrabenazine-induced ptosis in mice; assay: Antagonism of tetrabenazine-induced ptosis; type: in vivo, mouse; details: 200 mg/kg, 30 minutes before tetrabenazine 32 mg/kg intraperitoneally
Method: Groups of mice were given 32 mg/kg of tetrabenazine intraperitoneally 30 minutes after an injection of the compound of Example 6 (200 mg/kg). The degree of ptosis (eyelid drooping or closure) was then determined exactly 30 minutes after tetrabenazine administration.

5 day lethality, mice = details: mouse, in vivo
Text: (§4) Table VIII gives the results of 5 day lethality studies following single injections of drug. All values presented represent tests conducted when animals were housed 10 per cage. The compound of Example 6 was compared with chlorpromazine and chlordiazepoxide. In these and all the preceding calculations, the method of Litchfield and Wilcoxon (J. Pharmacol. Exptl. Ther., 96: 99, 1949) was used to estimate effective (ED50) or lethal (LD50) dose.

5 day lethality, rats = details: rat, in vivo, ip
Text: as §4

[12] = system: hissing response elicited by hypothalamic stimulation in cats; assay: Evoked hypothalamic rage response - cats; type: in vivo, cat; details: 25 mg/kg orally for three days
Text: The effect of the compound of Example 6 on the hissing response elicited by hypothalamic stimulation in cats was studied in an effort to determine if it had properties similar to that of chlordiazepoxide and other anti-anxiety-like agents. […] Cats with chronically implanted electrodes, stereotaxically placed in the perifornical region of the hypothalamus, were used in this study. Stimulation was accomplished in the unanesthetized, freely moving animal, and the threshold for the hissing response was determined with the following stimulus parameters: square wave stimulation of 150 Hz with a duration of 0.5 msec and voltage ranging from 5.4 to 30. The compound of Example 6 was administered orally in capsule form. Following administration, the stimulation threshold for the hiss response was determined at 1, 2, 4, 6 and 24 hours. If an effect was observed, the stimulation was carried out daily until the thresholds returned to control values. The compound of Example 6 was administered orally at a dose of 25 mg/kg for three days. […] It can be concluded that the compound of Example 6 has no effect on hypothalamic excitability in cats and in this respect differs markedly from chlordiazepoxide.

mice = assay: Neuropharmacological profile; type: in vivo, mouse
Text: as §1
The compound of Example 6 was studied in the neuropharmacological profile, which, as indicated above, is a standardized multi-dimensional observation technique used on mice to grade symptomatology and acute toxicity relative to dosage.

Q: Which results are given for `Cc1nc(NN=Nc2ccccc2C(N)=O)sc1C(=O)NCc1ccccc1` [Example 6, 2-[3-(4-methyl-5-(N-benzyl-carbamoyl)-2-thiazolyl)-2(or 1)-triazeno]-benzamide]?
A: responders at 30 mg/kg ([1]; Mus musculus, ip, 30 mg/kg intraperitoneally, at least 40% protected = active): 100%; ED50 ([1]; Mus musculus, ip, i.p. administration, read-out: ED50 (95% Confidence Limits), Isolated Mouse Aggression): 1.8 mg/kg; NTD50/ED50, Isolated Mouse Aggression ([1]; i.p. administration): 710; ED50 [2]: ~500 mg/kg; TD50 [3]: > 1280 mg/kg; TD50 [4]: ~500 mg/kg; ED50 ([5]; Mus musculus, ip, read-out: ED50 (95% Confidence Limits), Electroshock-Induced Fighting in Mice): 96 mg/kg; NTD50/ED50, Electroshock-Induced Fighting in Mice [5]: 13.3; ED50 ([6]; Rattus norvegicus, ip, i.p. administration, read-out: ED50 (95% Confidence Limits), Septal Rat Aggression): ~4.5 mg/kg; NTD50/ED50, Septal Rat Aggression ([6]; i.p. administration): 111.0; selectivity in inhibition of septal rat aggression versus chlordiazepoxide ([6]; septal rat): 185 times; MES50 [7]: Inactive; MET50 [8]: Inactive; ED50, d-amphetamine aggregation [9]: Inactive; excitation, salivation, jumping, and fighting with d1-DOPA ([10]; 200 mg/kg d1-DOPA, pargyline 80 mg/kg, Example 6 100 mg/kg, chlorpromazine 5 mg/kg, chlordiazepoxide 15 mg/kg): these symptoms were not observed; potentiation of dihydroxyphenylalanine-induced fighting behavior in mice ([10]; mice): failed to (1) potentiate dihydroxyphenylalanine-induced fighting behavior in mice; reversal of tetrabenazine-induced ptosis [11]: did not reverse tetrabenazine-induced ptosis; LD50 at 120 h (5 day lethality, mice; ip): > 1280 mg/kg; LD50 at 120 h (5 day lethality, mice; po): > 800 mg/kg; LD50 at 120 h (5 day lethality, rats): > 1400 mg/kg; decrease of the threshold for the rage response [12]: not observed during the experiments; delay from stimulus to response [12]: not changed; rage response, intensity or character [12]: not changed in intensity or character; effect on hypothalamic stimulation (threshold) ([12]; 25 mg/kg): no effect on hypothalamic stimulation; deaths in neuropharmacological profile (mice; 30, 100, 300 mg/kg, mice): No deaths occurred; central nervous system depressant action, profile result (mice; mouse, in vivo): very weak central nervous system depressant
